Results: patent US20130060020A1, “Compounds useful for treating neurodegenerative disorders” (Satori Pharmaceuticals, Inc., priority 2011, published 2013)
Like-named read-outs stand apart in the source and are kept apart here.

Legend:
Type in all cases: cell-based
Conditions in all cases: Homo sapiens, 5 hours treatment
[1] = system: Aβ-40; test: Aβ-40 MSD 3-plex ELISA, conditioned media of 2B7 cells
Description: (§1) Assays were conducted to determine the ability of a Compound of Formula I to modulate […], and Aβ-38.
(§2) Plates with capture antibodies were blocked for 1-2 hours at room temperature with 150 μL of the manufactures blocking reagent.
(§3) Cultured 2B7 cells in 96 well plate with 250 μL of media per well until confluent;
(§4) Prepared serial dilutions of compounds in DMSO at 100× the final desired concentration;
(§5) Washed wells with 2B7 cells 1× with 250 μL of media;
(§6) Diluted DMSO stocks 1:100 into media: • Added 250 μL of media containing compounds (1% DMSO) to wells with 2B7 cells for 5 hours at 37° C.
(§7) ELISA Sample Prep: • Diluted conditioned media: 1 part media with 1% DMSO and 1 part blocking buffer; • 150 μL of the 250 μL of conditioned media were used.
(§8) Prepared per manufacturer's protocol (see above). • Seven point standard curve samples were prepared that contained Aβ-42, Aβ-40, and Aβ-38. The highest concentration of Aβ-42 and Aβ-38 was 3,000 pg/mL and the highest concentration of Aβ-40 was 10,000 pg/mL. Subsequent serial dilutions were 1:3 and the final composition of each sample was 1 part blocking buffer and 1 part cell medium containing 1% DMSO.
(§9) Overnight Sample Incubation: • Blocked plates are washed 5× with MSD wash buffer with a plate washer; • […] and blocker G reagent in MSD blocking solution was added; • 25 μL of samples (1 part conditioned media containing 1% DMSO and 1 part MSD blocking buffer) were then added; • Plates were incubated overnight at 4 degrees C. or 2 hours at room temperature.
(§10) Final Wash and Readout: • Washed wells 5× with MSD wash buffer; • Added 150 μL 2×MSD read buffer; • Read with MSD imager.
(§11) Aβ peptide levels for each peptide were calculated from the standard curve using the MSD software provided with the MSD 2400 Imager. Percent vehicle values for each compound dosage were then calculated and fit to a 4 parameter curve generating IC50 values.
(§12) Conditioned media from 2B7 cells (Mayo) was collected after 5 hours of treatment and diluted with 1 volume of Meso Scale Discovery (MSD, Gaithersburg Md.) blocking buffer (1% BSA in MSD wash buffer). For total Aβ measurements, standard-bind, multi-array single spot 96 well MSD ELISA plates were coated with unlabeled 4G8 capture antibody (Covance, Princeton, N.J.) overnight at 4° C. and then blocked with 5% BSA in MSD wash buffer for 1 hour at room temperature with orbital shaking Diluted 2B7 conditioned media were added to the blocked in-house total Aβ MSD plates with SULFO-TAG 6E10 antibody (MSD). For Aβ38, 40 and 42 measurements, diluted 2B7 conditioned media were added to blocked human (6E10) Aβ 3-Plex plates (MSD). Total Aβ and Aβ 3-Plex plates were incubated for 2 hours at room temperature with orbital shaking followed by washing and reading according to the manufacturer's instructions (SECTOR® Imager 2400, MSD). Aβ concentrations were converted to percent vehicle values and used to construct dose response curves which were fitted to […] using GraphPad Prism version 5.00 for Windows, GraphPad Software, San Diego Calif. USA.

[2] = system: Aβ-42; test: Aβ-42 MSD 3-plex ELISA, conditioned media of 2B7 cells
Description: as §1, §2, §3, §4, §5, §6, §7, §8, §9, §10, §11, §12

[3] = system: Aβ-38; test: Aβ-38 MSD 3-plex ELISA, conditioned media of 2B7 cells
Description: as §1, §2, §3, §4, §5, §6, §7, §8, §9, §10, §11, §12

[4] = inflection of dose response curve, read-out: Aβ 40 DR IC50 Inflection
[5] = inflection of dose response curve, read-out: Aβ 42 DR IC50 Inflection
[6] = inflection of dose response curve, read-out: Aβ 38 DR IC50 Inflection

Row | SMILES | IC50 [1, 4] | IC50 ([1]; read-out: Aβ 40 IC50) | IC50 [2, 5] | IC50 ([2]; read-out: Aβ 42 IC50) | IC50 [3, 6] | IC50 ([3]; read-out: Aβ 38 IC50)
1 | CCO[C@@H]([C@H]1C[C@@H](C)[C@H]2[C@H](O1)[C@H](O)[C@@]1(C)[C@@H]3CC[C@H]4C(C)(C)[C@@H](O[C@H]5CN([C@H]6CCN(CC)C6=O)CCO5)CC[C@@]45C[C@@]35CC[C@]21C)C(C)(C)O [Compound I-1] | > 5000 nM | > 5000 nM | 501 to 1000 nM | 501 to 1000 nM | 501 to 1000 nM | 501 to 1000 nM
2 | CCO[C@@H]([C@H]1C[C@@H](C)[C@H]2[C@H](O1)[C@H](O)[C@@]1(C)[C@@H]3CC[C@H]4C(C)(C)[C@@H](O[C@H]5CN(C6CN(CCF)C6)CCO5)CC[C@@]45C[C@@]35CC[C@]21C)C(C)(C)O [Compound I-4] | > 5000 nM | 1000 to 5000 nM | 100 to 500 nM | 100 to 500 nM | – | 501 to 1000 nM
3 | CCO[C@@H]([C@H]1C[C@@H](C)[C@H]2[C@H](O1)[C@H](O)[C@@]1(C)[C@@H]3CC[C@H]4C(C)(C)[C@@H](O[C@H]5CN(C6CN(CC(F)F)C6)CCO5)CC[C@@]45C[C@@]35CC[C@]21C)C(C)(C)O [Compound I-9] | – | 1000 to 5000 nM | 100 to 500 nM | 100 to 500 nM | – | 501 to 1000 nM
4 | CCO[C@@H]([C@H]1C[C@@H](C)[C@H]2[C@H](O1)[C@H](O)[C@@]1(C)[C@@H]3CC[C@H]4C(C)(C)[C@@H](O[C@H]5CN(C(C)(C)C6CN(C)C6)CCO5)CC[C@@]45C[C@@]35CC[C@]21C)C(C)(C)O [Compound I-12] | – | 1000 to 5000 nM | 100 to 500 nM | 100 to 500 nM | – | 100 to 500 nM
5 | CCO[C@@H]([C@H]1C[C@@H](C)[C@H]2[C@H](O1)[C@H](O)[C@@]1(C)[C@@H]3CC[C@H]4C(C)(C)[C@@H](O[C@H]5CN(C6CN(C(C)(C)C)C6)CCO5)CC[C@@]45C[C@@]35CC[C@]21C)C(C)(C)O [Compound I-14] | – | 1000 to 5000 nM | < 100 nM | < 100 nM | – | 100 to 500 nM
6 | CCO[C@@H]([C@H]1C[C@@H](C)[C@H]2[C@H](O1)[C@H](O)[C@@]1(C)[C@@H]3CC[C@H]4C(C)(C)[C@@H](O[C@H]5CN(C(C)(C)C6CN(C7COC7)C6)CCO5)CC[C@@]45C[C@@]35CC[C@]21C)C(C)(C)O [Compound I-15] | > 5000 nM | 1000 to 5000 nM | 100 to 500 nM | 100 to 500 nM | – | 501 to 1000 nM
7 | CCO[C@@H]([C@H]1C[C@@H](C)[C@H]2[C@H](O1)[C@H](O)[C@@]1(C)[C@@H]3CC[C@H]4C(C)(C)[C@@H](O[C@H]5CN(C6CN(CC(C)(C)C)C6)CCO5)CC[C@@]45C[C@@]35CC[C@]21C)C(C)(C)O [Compound I-16] | – | 1000 to 5000 nM | 100 to 500 nM | 100 to 500 nM | – | 501 to 1000 nM
8 | CCO[C@@H]([C@H]1C[C@@H](C)[C@H]2[C@H](O1)[C@H](O)[C@@]1(C)[C@@H]3CC[C@H]4C(C)(C)[C@@H](O[C@H]5CN(CC6CN(CC(C)(C)C)C6)CCO5)CC[C@@]45C[C@@]35CC[C@]21C)C(C)(C)O [Compound I-18] | 1000 to 5000 nM | 1000 to 5000 nM | 100 to 500 nM | 100 to 500 nM | – | 501 to 1000 nM
9 | CCO[C@@H]([C@H]1C[C@@H](C)[C@H]2[C@H](O1)[C@H](O)[C@@]1(C)[C@@H]3CC[C@H]4C(C)(C)[C@@H](O[C@H]5CN(C6CCN(C7CCC7)CC6)CCO5)CC[C@@]45C[C@@]35CC[C@]21C)C(C)(C)O [Compound I-21] | 1000 to 5000 nM | 1000 to 5000 nM | 100 to 500 nM | 100 to 500 nM | 501 to 1000 nM | 501 to 1000 nM
10 | CCO[C@@H]([C@H]1C[C@@H](C)[C@H]2[C@H](O1)[C@H](O)[C@@]1(C)[C@@H]3CC[C@H]4C(C)(C)[C@@H](O[C@H]5CN(CC6CN(C7CCC7)C6)CCO5)CC[C@@]45C[C@@]35CC[C@]21C)C(C)(C)O [Compound I-23] | > 5000 nM | 1000 to 5000 nM | 100 to 500 nM | 100 to 500 nM | – | 100 to 500 nM
11 | CCO[C@@H]([C@H]1C[C@@H](C)[C@H]2[C@H](O1)[C@H](O)[C@@]1(C)[C@@H]3CC[C@H]4C(C)(C)[C@@H](O[C@H]5CN(CC6CN(CC7(C)COC7)C6)CCO5)CC[C@@]45C[C@@]35CC[C@]21C)C(C)(C)O [Compound I-26] | 1000 to 5000 nM | 1000 to 5000 nM | 100 to 500 nM | 100 to 500 nM | 1000 to 5000 nM | 501 to 1000 nM
12 | CCO[C@@H]([C@H]1C[C@@H](C)[C@H]2[C@H](O1)[C@H](O)[C@@]1(C)[C@@H]3CC[C@H]4C(C)(C)[C@@H](O[C@H]5CN(C6(C)CN(C7CCC7)C6)CCO5)CC[C@@]45C[C@@]35CC[C@]21C)C(C)(C)O [Compound I-27] | – | 1000 to 5000 nM | < 100 nM | 100 to 500 nM | – | 100 to 500 nM
13 | CCO[C@@H]([C@H]1C[C@@H](C)[C@H]2[C@H](O1)[C@H](O)[C@@]1(C)[C@@H]3CC[C@H]4C(C)(C)[C@@H](O[C@H]5CN(C6CCN(C)CC6)CCO5)CC[C@@]45C[C@@]35CC[C@]21C)C(C)(C)O [Compound I-29] | – | 1000 to 5000 nM | < 100 nM | < 100 nM | – | 100 to 500 nM
14 | CCO[C@@H]([C@H]1C[C@@H](C)[C@H]2[C@H](O1)[C@H](O)[C@@]1(C)[C@@H]3CC[C@H]4C(C)(C)[C@@H](O[C@H]5CN(C6(C)CN(C)C6)CCO5)CC[C@@]45C[C@@]35CC[C@]21C)C(C)(C)O [Compound I-31] | – | 1000 to 5000 nM | < 100 nM | < 100 nM | – | 100 to 500 nM
15 | CCO[C@@H]([C@H]1C[C@@H](C)[C@H]2[C@H](O1)[C@H](O)[C@@]1(C)[C@@H]3CC[C@H]4C(C)(C)[C@@H](O[C@H]5CN(C6(C)CN(CC(C)(C)C)C6)CCO5)CC[C@@]45C[C@@]35CC[C@]21C)C(C)(C)O [Compound I-33] | – | – | < 100 nM | 100 to 500 nM | – | 100 to 500 nM
16 | CCO[C@@H]([C@H]1C[C@@H](C)[C@H]2[C@H](O1)[C@H](O)[C@@]1(C)[C@@H]3CC[C@H]4C(C)(C)[C@@H](O[C@H]5CN(C6(C)CN(C7COC7)C6)CCO5)CC[C@@]45C[C@@]35CC[C@]21C)C(C)(C)O [Compound I-36] | – | – | 100 to 500 nM | 100 to 500 nM | – | 501 to 1000 nM
17 | CCO[C@@H]([C@H]1C[C@@H](C)[C@H]2[C@H](O1)[C@H](O)[C@@]1(C)[C@@H]3CC[C@H]4C(C)(C)[C@@H](O[C@H]5CN(CCN6CC(F)(F)C6)CCO5)CC[C@@]45C[C@@]35CC[C@]21C)C(C)(C)O [Compound I-64] | – | – | 100 to 500 nM | 100 to 500 nM | – | 501 to 1000 nM
